Key:
Type in all cases: in vivo
[1] = test system: yellow nutsedge (Cyperus esculentus); assay: Test B pre-/postemergence plant response; conditions: for Nutsedge, Yellow plant response rating: 8 g ai/ha
Summary of the method: (§1)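 Preemergence and postemergence (plants 2-18 cm, 1- to 4-leaf stage) applications used test chemicals in a non-phytotoxic solvent with surfactant. Plants were held in a greenhouse 13 to 15 days, then rated visually against controls on a 0-100 scale (0 no effect, 100 complete control).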

[2] = test system: wheat (Triticum aestivum); assay: Test B pre-/postemergence plant response; conditions: for Wheat plant response rating: 8 g ai/ha
Summary of the method: as §1

[3] = test system: wild oat (Avena fatua); assay: Test B pre-/postemergence plant response; conditions: for Oat, Wild plant response rating: 8 g ai/ha
Summary of the method: as §1

[4] = test system: barnyardgrass (Echinochloa crus-galli); assay: Test A pre-/postemergence plant response
Summary of the method: (§2)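 Both pre- and postemergence treatment given concurrently; postemergence seedlings measured 2–10 cm at the one- to two-leaf stage. Visual injury, 0–100 scale versus untreated, at ~10 days.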

[5] = test system: morningglory (Ipomoea coccinea); assay: Test A pre-/postemergence plant response
Summary of the method: as §2

[6] = test system: giant foxtail (Setaria faberi); assay: Test A pre-/postemergence plant response
Summary of the method: as §2

[7] = test system: large crabgrass (Digitaria sanguinalis); assay: Test A pre-/postemergence plant response
Summary of the method: as §2

[8] = test system: corn (Zea mays); assay: Test A pre-/postemergence plant response
Summary of the method: as §2

[9] = test system: velvetleaf (Abutilon theophrasti); assay: Test A pre-/postemergence plant response
Summary of the method: as §2

[10] = test system: canarygrass (Phalaris minor); assay: Test B postemergence plant response; conditions: for Canarygrass plant response rating: 8 g ai/ha, postemergence, 0-100 scale; for Plant response rating, Canarygrass: Postemergence
Summary of the method: (§3)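 Compounds applied after emergence to 2–18 cm plants; response read visually 13–15 days later on 0 (none) to 100 (complete control); a dash marks no result.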

[11] = test system: chickweed (Stellaria media); assay: Test B postemergence plant response; conditions: for Chickweed plant response rating: 8 g ai/ha, postemergence, 0-100 scale; for Plant response rating, Chickweed: Postemergence
Summary of the method: as §3

[12] = test system: winter barley (Hordeum vulgare); assay: Test B postemergence plant response; conditions: for Barley plant response rating: 8 g ai/ha, postemergence, 0-100 scale; for Plant response rating, Barley: Postemergence, scale 0 to 100, 0 no effect, 100 complete control
Summary of the method: as §3

[13] = test system: windgrass (Apera spica-venti); assay: Test B postemergence plant response; conditions: for Windgrass plant response rating: 8 g ai/ha, postemergence, 0-100 scale; for Plant response rating, Windgrass: Postemergence
Summary of the method: as §3

[14] = Postemergence, 16 g ai/ha, scale 0 to 100
[15] = Postemergence, 31 g ai/ha, scale 0 to 100, 0 no effect, 100 complete control
[16] = Postemergence, 62 g ai/ha, scale 0 to 100, 0 no effect, 100 complete control
[17] = Preemergence, 16 g ai/ha, scale 0 to 100 (0 no effect, 100 complete control)
[18] = Preemergence, 31 g ai/ha, 0 to 100 scale, 0 no effect, 100 complete control
[19] = Preemergence, 62 g ai/ha, scale 0 to 100
[20] = Postemergence, 31 g ai/ha, 0 to 100 scale, 0 no effect, 100 complete control
[21] = Postemergence, 125 g ai/ha, 0 to 100 scale, 0 no effect, 100 complete control
[22] = Preemergence, 31 g ai/ha, 0 to 100 scale, 0 is no effect, 100 is complete control
[23] = Preemergence, 125 g ai/ha, 0 to 100 scale (0 no effect, 100 complete control)
[24] = 31 g ai/ha, scale 0 to 100, 0 no effect, 100 complete control
[25] = 62 g ai/ha, scale 0 to 100, 0 no effect, 100 complete control

Cc1cc(-c2ccc(Cl)cc2)nn1-c1c(OS(=O)(=O)c2ccccc2)cnn(C)c1=O [Compound 35]
95: Plant response rating, Oat, Wild [3, 16] | Plant response rating, Oat, Wild [3, 19]
70: Plant response rating, Oat, Wild [3, 14]
45: Plant response rating, Canarygrass [10, 25]
40: Plant response rating, Crabgrass, Large [7, 20] | Plant response rating, Windgrass [13, 25]
90: Plant response rating, Barnyardgrass [4, 21] | Plant response rating, Foxtail, Giant [6, 21] | Plant response rating, Crabgrass, Large [7, 21] | Plant response rating, Crabgrass, Large [7, 22]
50: Oat, Wild plant response rating ([3]; postemergence, 0-100 scale)
60: Plant response rating, Barnyardgrass [4, 20] | Plant response rating, Foxtail, Giant [6, 20] | Plant response rating, Corn [8, 21]
35: Plant response rating, Wheat [2, 14] | Plant response rating, Barley ([12]; 62 g ai/ha)
100: Plant response rating, Barnyardgrass [4, 23] | Plant response rating, Foxtail, Giant [6, 22] | Plant response rating, Foxtail, Giant [6, 23] | Plant response rating, Crabgrass, Large [7, 23]
30: Plant response rating, Wheat [2, 19]
85: Plant response rating, Wheat [2, 16] | Plant response rating, Oat, Wild [3, 15]
5: Plant response rating, Canarygrass [10, 24] | Plant response rating, Barley ([12]; 31 g ai/ha)
0: Nutsedge, Yellow plant response rating ([1]; postemergence, 0-100 scale) | Plant response rating, Nutsedge, Yellow [1, 14] | Plant response rating, Nutsedge, Yellow [1, 15] | Plant response rating, Nutsedge, Yellow [1, 16] | Plant response rating, Nutsedge, Yellow [1, 17] | Plant response rating, Nutsedge, Yellow [1, 18] | Plant response rating, Nutsedge, Yellow [1, 19] | Nutsedge, Yellow plant response rating ([1]; Preemergence, scale 0 to 100) | Wheat plant response rating ([2]; postemergence, 0-100 scale) | Plant response rating, Wheat [2, 17] | Plant response rating, Wheat [2, 18] | Wheat plant response rating ([2]; Preemergence, scale 0 to 100) | Oat, Wild plant response rating ([3]; Preemergence, scale 0 to 100) | Plant response rating, Morningglory [5, 20] | Plant response rating, Morningglory [5, 21] | Plant response rating, Morningglory [5, 22] | Plant response rating, Morningglory [5, 23] | Plant response rating, Corn [8, 20] | Plant response rating, Corn [8, 22] | Plant response rating, Velvetleaf [9, 20] | Plant response rating, Velvetleaf [9, 21] | Plant response rating, Velvetleaf [9, 22] | Plant response rating, Velvetleaf [9, 23] | Canarygrass plant response rating [10] | Plant response rating, Canarygrass ([10]; 16 g ai/ha, scale 0 to 100) | Chickweed plant response rating [11] | Plant response rating, Chickweed ([11]; 16 g ai/ha, scale 0 to 100) | Plant response rating, Chickweed [11, 24] | Plant response rating, Chickweed [11, 25] | Barley plant response rating [12] | Plant response rating, Barley ([12]; 16 g ai/ha) | Windgrass plant response rating [13] | Plant response rating, Windgrass ([13]; 16 g ai/ha, scale 0 to 100)
80: Plant response rating, Oat, Wild [3, 18] | Plant response rating, Barnyardgrass [4, 22] | Plant response rating, Corn [8, 23]

Cc1cc(-c2ccc(Cl)cc2)nn1-c1c(OC(=O)CC(C)C)cnn(C)c1=O [Compound 37]
50: Plant response rating, Wheat [2, 14] | Plant response rating, Crabgrass, Large [7, 20]
100: Plant response rating, Barnyardgrass [4, 21] | Plant response rating, Barnyardgrass [4, 23] | Plant response rating, Foxtail, Giant [6, 21] | Plant response rating, Foxtail, Giant [6, 22] | Plant response rating, Foxtail, Giant [6, 23] | Plant response rating, Crabgrass, Large [7, 23] | Plant response rating, Corn [8, 21]
60: Plant response rating, Corn [8, 20] | Plant response rating, Windgrass ([13]; 16 g ai/ha, scale 0 to 100)
30: Plant response rating, Corn [8, 22]
65: Plant response rating, Oat, Wild [3, 17]
95: Plant response rating, Wheat [2, 16] | Plant response rating, Oat, Wild [3, 14] | Plant response rating, Oat, Wild [3, 15] | Plant response rating, Oat, Wild [3, 19]
85: Oat, Wild plant response rating ([3]; postemergence, 0-100 scale) | Plant response rating, Windgrass [13, 25]
0: Nutsedge, Yellow plant response rating ([1]; postemergence, 0-100 scale) | Plant response rating, Nutsedge, Yellow [1, 14] | Plant response rating, Nutsedge, Yellow [1, 15] | Plant response rating, Nutsedge, Yellow [1, 16] | Plant response rating, Nutsedge, Yellow [1, 17] | Plant response rating, Nutsedge, Yellow [1, 18] | Plant response rating, Nutsedge, Yellow [1, 19] | Nutsedge, Yellow plant response rating ([1]; Preemergence, scale 0 to 100) | Plant response rating, Wheat [2, 17] | Wheat plant response rating ([2]; Preemergence, scale 0 to 100) | Oat, Wild plant response rating ([3]; Preemergence, scale 0 to 100) | Plant response rating, Morningglory [5, 20] | Plant response rating, Morningglory [5, 21] | Plant response rating, Morningglory [5, 22] | Plant response rating, Morningglory [5, 23] | Plant response rating, Velvetleaf [9, 20] | Plant response rating, Velvetleaf [9, 21] | Plant response rating, Velvetleaf [9, 22] | Plant response rating, Velvetleaf [9, 23] | Canarygrass plant response rating [10] | Chickweed plant response rating [11] | Plant response rating, Chickweed ([11]; 16 g ai/ha, scale 0 to 100) | Plant response rating, Chickweed [11, 24] | Plant response rating, Chickweed [11, 25] | Barley plant response rating [12] | Plant response rating, Barley ([12]; 16 g ai/ha)
5: Plant response rating, Wheat [2, 18] | Plant response rating, Barley ([12]; 31 g ai/ha)
15: Wheat plant response rating ([2]; postemergence, 0-100 scale) | Plant response rating, Barley ([12]; 62 g ai/ha)
70: Plant response rating, Wheat [2, 19]
80: Plant response rating, Oat, Wild [3, 18] | Plant response rating, Foxtail, Giant [6, 20] | Plant response rating, Crabgrass, Large [7, 22]
98: Plant response rating, Oat, Wild [3, 16]
10: Plant response rating, Canarygrass ([10]; 16 g ai/ha, scale 0 to 100) | Plant response rating, Canarygrass [10, 24] | Windgrass plant response rating [13]
90: Plant response rating, Barnyardgrass [4, 20] | Plant response rating, Barnyardgrass [4, 22] | Plant response rating, Crabgrass, Large [7, 21] | Plant response rating, Corn [8, 23]
40: Plant response rating, Canarygrass [10, 25]
